Test systems include ACHN renal; CAKI-1 renal; COLO 205 colon; MCF7 breast; NCI-H23 lung; OVCAR-4 ovarian; OVCAR-8 ovarian; PC-3 prostate; SK-MEL-28 melanoma; TK-10 renal.
Common to all, as to test: growth of human tumour cells (NCI), 48 h

Where “and” joins values, the source holds several entries; their conditions need not be identical. Identical values can stand only once.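 Five compound concentrations were applied to cells in 96-well plates for 48 hours; endpoints were derived by simple linear interpolation of the resulting dose-response curve. At the GI50, growth is halved. TGI: total growth inhibition.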

Turning to `O=C(Oc1c(Cl)cc(C2(c3cc(Cl)c(OC(=O)c4ccccc4)c(Cl)c3)CCCCC2)cc1Cl)c1ccccc1`, the TGI with ACHN renal is 17.6 µM; in the test on CAKI-1 renal, 18.5 µM; in the test on COLO 205 colon it was 19.6 µM; with MCF7 breast, 25.2 µM; in the test on NCI-H23 lung it was 23.4 µM; in the test with OVCAR-4 ovarian, 32.3 µM. Further, the TGI was determined as 34.1 µM in the test on OVCAR-8 ovarian, 21.3 µM with PC-3 prostate, 29.3 µM with SK-MEL-28 melanoma and 30.4 µM in the test on TK-10 renal.
In the case of `C[C@@H]1C(=O)O[C@H]1[C@H](O)CO`, the TGI with ACHN renal, in the test with CAKI-1 renal, in the test with COLO 205 colon, in the test with MCF7 breast, with NCI-H23 lung and in the test on OVCAR-4 ovarian was over 100 µM each time. Besides, the TGI in the test on OVCAR-8 ovarian, with PC-3 prostate, with SK-MEL-28 melanoma and with TK-10 renal was over 100 µM each time.
Regarding `CCCCCCCCCCCCCC1=C(O)C(=O)C(CC2=C(O)C(=O)C(CCCCCCCCCCCCC)=C(O)C2=O)=C(O)C1=O`, the TGI in the test on ACHN renal, in the test with CAKI-1 renal, in the test with COLO 205 colon, in the test on MCF7 breast, with NCI-H23 lung and in the test with OVCAR-8 ovarian was over 100 µM in each case. The TGI in the test on PC-3 prostate, in the test with SK-MEL-28 melanoma and in the test on TK-10 renal was over 100 µM each time.
With `Nc1[nH]c(=S)nc2nc3c(c(-c4ccccc4)c12)CCCC3`, the TGI in the test with ACHN renal, in the test on CAKI-1 renal, in the test with COLO 205 colon, in the test on MCF7 breast, in the test on NCI-H23 lung and in the test on OVCAR-4 ovarian was over 100 µM each time. Also, the TGI with OVCAR-8 ovarian, in the test with PC-3 prostate and in the test on TK-10 renal was over 100 µM in each case.
Turning to `COc1ccccc1CC(C)N` (configuration not stated), the TGI in the test with ACHN renal, with CAKI-1 renal, with COLO 205 colon, with NCI-H23 lung, with OVCAR-4 ovarian and in the test with OVCAR-8 ovarian was over 100 µM each time. The TGI with SK-MEL-28 melanoma and with TK-10 renal was over 100 µM each time.
Consider `CC(C)CCCC(C)[C@H]1CC[C@H]2n3c(nc4ccccc43)CCC[C@]12C` (some centres not stated), for which the TGI worked out at 34.3 µM with CAKI-1 renal; 23.7 µM with COLO 205 colon; 28.5 µM in the test with MCF7 breast; 34.4 µM with NCI-H23 lung; 31.5 µM in the test with OVCAR-4 ovarian; 37.2 µM in the test with OVCAR-8 ovarian. The results for the TGI in the test with PC-3 prostate, in the test on SK-MEL-28 melanoma and in the test with TK-10 renal were 42.9 µM, 34.3 µM and 38.2 µM, respectively.
As for `O=C(NC(Cc1ccc(Br)cc1)C(=O)O)c1ccc(I)cc1` (configuration not stated), the TGI with CAKI-1 renal, in the test with COLO 205 colon, in the test on MCF7 breast, with NCI-H23 lung, with OVCAR-4 ovarian and in the test on OVCAR-8 ovarian was over 100 µM throughout. In addition, the TGI in the test with SK-MEL-28 melanoma is over 100 µM.
Turning to `CCN(CC)CC[n+]1ccc2c(C)c3[nH]c4ccc(O)cc4c3c(C)c2c1`, the TGI is 16.5 µM with ACHN renal; 49.6 µM and 16.3 µM in the test with CAKI-1 renal; 17.4 µM and 31 µM with COLO 205 colon; 34.5 µM and 80.6 µM in the test with MCF7 breast; 25.1 µM and 22.5 µM in the test on NCI-H23 lung; 23.4 µM and 30.4 µM in the test on OVCAR-4 ovarian. For the same compound, the TGI with OVCAR-8 ovarian is 44.6 µM and 13.3 µM; in the test with PC-3 prostate, 31.8 µM; in the test on SK-MEL-28 melanoma it was 21.3 µM and 44.8 µM. Moreover, the GI50 in the test with CAKI-1 renal was 3.41 µM; in the test with COLO 205 colon, 2.6 µM; in the test with MCF7 breast, 1.74 µM; in the test with NCI-H23 lung it was 2.45 µM; in the test on OVCAR-8 ovarian it was 1.23 µM; in the test with SK-MEL-28 melanoma, 9.07 µM.
As for `CSc1nc(CO)c(CO)n1C`, the TGI in the test with CAKI-1 renal, in the test on COLO 205 colon, in the test on MCF7 breast, in the test with NCI-H23 lung, in the test with OVCAR-4 ovarian and with OVCAR-8 ovarian was over 100 µM each time. The same compound registered a TGI with SK-MEL-28 melanoma of over 100 µM.
`CN(C)CCNC(=O)c1cc(Cl)cc2cc3ccccc3nc12`: the TGI stood at 1.66 µM in the test with COLO 205 colon; 4.53 µM in the test on MCF7 breast; 3.42 µM with NCI-H23 lung; 8.04 µM in the test with OVCAR-4 ovarian; 6.18 µM in the test on OVCAR-8 ovarian; 3.76 µM in the test on SK-MEL-28 melanoma.
Take `CCc1n[nH]c(=O)n1/N=C(\C)c1ccc([N+](=O)[O-])cc1`: the TGI with CAKI-1 renal, in the test with COLO 205 colon, in the test on MCF7 breast, in the test on NCI-H23 lung, with OVCAR-4 ovarian and with OVCAR-8 ovarian was over 100 µM throughout. The TGI in the test on PC-3 prostate, in the test on SK-MEL-28 melanoma and in the test with TK-10 renal was over 100 µM throughout.
Consider `COc1cc(/C=C2\N=C(c3ccccc3)N(c3ccc(C(=O)c4ccccc4)cc3N3C(=O)/C(=C/c4ccc(O)c(OC)c4)N=C3c3ccccc3)C2=O)ccc1O`, for which the TGI in the test with ACHN renal worked out at 57.2 µM; in the test on CAKI-1 renal, 71 µM; in the test with COLO 205 colon, 32.3 µM; in the test with MCF7 breast, 20.2 µM; in the test with OVCAR-4 ovarian it was 84.4 µM; in the test on OVCAR-8 ovarian it was 32.5 µM. Besides, the TGI in the test with PC-3 prostate came to 26.7 µM; with SK-MEL-28 melanoma, 72.6 µM; in the test with TK-10 renal, 51.9 µM.
Take `OC[C@H]1NC[C@@H](O)[C@@H](O)[C@H]1O`: the TGI with CAKI-1 renal, in the test on COLO 205 colon, with MCF7 breast, with NCI-H23 lung, in the test on OVCAR-4 ovarian and in the test on OVCAR-8 ovarian was over 100 µM throughout. In addition, the TGI with PC-3 prostate and in the test with TK-10 renal was over 100 µM throughout.
Turning to `Cc1[nH]c(=O)[nH]c(=O)c1/C=C/C(=O)NC(CO)CS(=O)CS(C)=O` (configuration not stated), the TGI was determined as 13.3 µM in the test with CAKI-1 renal; 132 µM with COLO 205 colon; 125 µM in the test with MCF7 breast; 43.7 µM in the test with NCI-H23 lung; 14.9 µM with OVCAR-4 ovarian; 122 µM in the test on OVCAR-8 ovarian. Further, the TGI in the test with SK-MEL-28 melanoma is 69.8 µM.
Turning to `CCOC(=O)CCC(C(=O)OCC)n1nc2ccc(Nc3c(C)[n+]([O-])c4cc(F)c(OCC)cc4[n+]3[O-])cc2n1` (configuration not stated), the TGI in the test on ACHN renal, with CAKI-1 renal, in the test with COLO 205 colon, with MCF7 breast, with NCI-H23 lung and in the test on OVCAR-4 ovarian was over 100 µM in each case. The TGI with OVCAR-8 ovarian, in the test on PC-3 prostate and in the test with TK-10 renal was over 100 µM in each case.

Source of the values: PubChem BioAssay (NCI).
